Consider 23 molecules from US7348425B2, “Inhibitors of HCV replication” (Bristol-Myers Squibb Company, priority 2004, dated 2008).

Read-outs that look alike come from different tables or passages of the source. Some results are limits rather than exact numbers.

Experiment [1] concerns the target T1, HCV NS5B RdRp genotype 1b (Hepatitis C virus genotype 1b, UniProt Q9WMX2).
T1 construct: The protein was expressed with an 18 amino acid C-terminal truncation to enhance the solubility; made in house; host or cells: E. coli BL21 (DE3), pET21a
The experiment in a line: Standard HCV NS5B RdRp enzyme assay. Format: biochemical. The conditions noted are these: standard method. As to the method: HCVNS5B RdRp cloning, expression, and purification. The cDNA encoding the NS5B protein of HCV, genotype 1b, was cloned into the pET21a expression vector. The protein was expressed with an 18 amino acid C-terminal truncation to enhance the solubility. The E. coli competent cell line BL21 (DE3) was used for expression of the protein. Cultures were grown at 37° C. for ˜4 hours until the cultures reached an optical density of 2.0 at 600 nm. The cultures were cooled to 20° C. and induced with 1 mM IPTG. Fresh ampicillin was added to a final concentration of 50 μg/ml and the cells were grown overnight at 20° C.
Cell pellets (3 L) were lysed for purification to yield 15-24 mgs of purified NS5B. The lysis buffer consisted of 20 mM Tris-HCl, pH 7.4, 500 mM NaCl, 0.5% triton X-100, 1 mM DTT, 1 mM EDTA, 20% glycerol, 0.5 mg/ml lysozyme, 10 mM MgCl2, 15 ug/ml deoxyribonuclease I, and Complete TM protease inhibitor tablets (Roche). After addition of the lysis buffer, frozen cell pellets were resuspended using a tissue homogenizer. To reduce the viscosity of the sample, aliquots of the lysate were sonicated on ice using a microtip attached to a Branson sonicator. The sonicated lysate was centrifuged at 100,000×g for 1 hr at 4° C. and filtered through a 0.2 μm filter unit (Corning).
The protein was purified using three sequential chromatography steps: Heparin sepharose CL-6B, polyU sepharose 4B, and Hitrap SP sepharose (Pharmacia). The chromatography buffers were identical to the lysis buffer but contained no lysozyme, deoxyribonuclease I, MgCl2 or protease inhibitor and the NaCl concentration of the buffer was adjusted according to the requirements for charging the protein onto the column. Each column was eluted with a NaCl gradient which varied in length from 5-50 column volumes depending on the column type. After the final chromatography step, the resulting purity of the enzyme is >90% based on SDS-PAGE analysis. The enzyme was aliquoted and stored at −80° C.
Standard HCV NS5B RdRp enzyme assay. HCV RdRp genotype Ib assays were run in a final volume of 60 μl in 96 well plates (Costar 3912). The assay buffer is composed of 20 mM Hepes, pH 7.5, 2.5 mM KCl, 2.5 mM MgCl2, 1 mM DTT, 1.6 U RNAse inhibitor (Promega N2515), 0.1 mg/ml BSA (Promega R3961), and 2% glycerol. All compounds were serially diluted (3-fold) in DMSO and diluted further in water such that the final concentration of DMSO in the assay was 2%. HCV RdRp genotype 1b enzyme was used at a final concentration of 28 nM. A polyA template was used at 6 nM, and a biotinylated oligo-dT12 primer was used at 180 nM final concentration. Template was obtained commercially (Amersham 27-4110). Biotinylated primer was prepared by Sigma Genosys. ^3H-UTP was used at 0.6 μCi (0.29 μM total UTP). Reactions were initiated by the addition of enzyme, incubated at 30° C. for 60 min, and stopped by adding 25 μl of 50 mM EDTA containing SPA beads (4 μg/μl, Amersham RPNQ 0007). Plates were read on a Packard Top Count NXT after >1 hr incubation at room temperature.
The IC50 values for compounds were determined using seven different [I]. IC50 values were calculated from the inhibition using the formula y=A+((B−A)/(1+((C/x)^D))). FRET Assay Preparation. To perform the HCV FRET screening assay, 96-well cell culture plates were used. The FRET peptide (Anaspec, Inc.) (Taliani et al., Anal. Biochem. 240:60-67 (1996), hereby incorporated by reference in its entirety) contains a fluorescence donor, EDANS, near one end of the peptide and an acceptor, DABCYL, near the other end. The fluorescence of the peptide is quenched by […] resonance energy transfer (RET) between the donor and the acceptor, but as the NS3 protease cleaves the peptide the products are released from RET quenching and the fluorescence of the donor becomes apparent. […]

Another experiment has as its system HCV replicon. The experiment in a line: HCV replicon luciferase assay. Format: cell-based, Hepatitis C virus. To be noted: luciferase method, read-out: EC50. Summed up: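 Replicon cells, some carrying a Renilla luciferase reporter, were incubated with titrated compound at 37 °C; Alamar blue measured cytotoxicity, followed by a kinetic FRET peptide read (340/490 nm) or Dual-Glo luciferase. Activity was normalized to untreated controls after subtracting background from high-dose protease inhibitor wells; EC50 was the concentration giving 50% signal reduction.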

A further experiment relates to HCV. The conditions noted are these: cited from earlier work.

T1 sequence (Q9WMX2 2420-2992): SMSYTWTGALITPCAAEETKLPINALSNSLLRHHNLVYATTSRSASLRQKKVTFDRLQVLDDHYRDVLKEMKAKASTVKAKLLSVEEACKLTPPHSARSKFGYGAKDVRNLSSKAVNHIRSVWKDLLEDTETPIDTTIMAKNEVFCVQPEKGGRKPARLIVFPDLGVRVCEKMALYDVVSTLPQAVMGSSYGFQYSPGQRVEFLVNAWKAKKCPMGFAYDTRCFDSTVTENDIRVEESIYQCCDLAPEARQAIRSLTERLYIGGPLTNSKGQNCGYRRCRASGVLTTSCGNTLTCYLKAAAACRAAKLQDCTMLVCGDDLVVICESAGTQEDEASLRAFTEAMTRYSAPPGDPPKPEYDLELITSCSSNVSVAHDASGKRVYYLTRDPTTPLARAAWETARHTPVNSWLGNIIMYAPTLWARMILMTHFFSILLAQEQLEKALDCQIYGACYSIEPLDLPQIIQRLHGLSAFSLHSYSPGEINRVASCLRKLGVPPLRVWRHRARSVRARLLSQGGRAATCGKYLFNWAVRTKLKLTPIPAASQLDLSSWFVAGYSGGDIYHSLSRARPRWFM

`CCOC(=O)c1cc2ccccc2c2c(C3CCCCC3)c3ccc(C(=O)OC)cc3n12` [Example 16, 6-ethyl-9-methyl-12-cyclohexyl-indolo[2,1-a]isoquinoline-6,9-dicarboxylic acid]: the concentration for half-maximal inhibition (IC50) in experiment [1] was above 1000 nM. Also, the EC50 in the experiment with HCV replicon (Hepatitis C virus) was above 10000 nM.
The matching figures for `O=C(O)c1ccc2c(C3CCCCC3)c3n(c2c1)CC=Cc1ccccc1-3` [Example 18, 13-cyclohexyl-7H-indolo[2,1-a][2]benzazepine-10-carboxylic acid]: above 1000 nM and 1000 to 10000 nM.
The matching figures for `CN(C)S(=O)(=O)NC(=O)c1ccc2c(C3CCCCC3)c3n(c2c1)CC=Cc1ccccc1-3` [Example 19, 13-cyclohexyl-N-(dimethylaminosulfonyl)-7H-indolo[2,1-a][2]benzazepine-10-carboxamide]: 100 to 1000 nM and 100 to 1000 nM.
In the case of `COC(=O)c1ccc2c(C3CCCCC3)c3n(c2c1)CC(=O)Nc1ccccc1-3` [Example 20, Methyl 13-cyclohexyl-6,7-dihydro-6-oxo-5H-indolo[1,2-d][1,4]benzodiazepine-10-carboxylate], the 50% inhibitory concentration (IC50) in experiment [1] was above 1000 nM. Besides, the concentration giving a half-maximal response (EC50) in the experiment with HCV replicon (Hepatitis C virus) is 1000 to 10000 nM.
The matching figures for `O=C1Cn2c(c(C3CCCCC3)c3ccc(C(=O)O)cc32)-c2ccccc2N1` [Example 21, 13-cyclohexyl-6,7-dihydro-6-oxo-5H-indolo[1,2-d][1,4]benzodiazepine-10-carboxylic acid]: 100 to 1000 nM and 100 to 1000 nM.
The matching figures for `CN1C(=O)Cn2c(c(C3CCCCC3)c3ccc(C(=O)O)cc32)-c2ccccc21` [Example 22, 13-cyclohexyl-6,7-dihydro-6-oxo-5-methyl-5H-indolo[1,2-d][1,4]benzodiazepine-10-carboxylic acid]: 100 to 1000 nM and 100 to 1000 nM.
The matching figures for `O=C(O)CCCc1nc(C2(NC(=O)c3ccc4c(C5CCCCC5)c5n(c4c3)CC=Cc3ccccc3-5)CCCC2)no1` [Example 23, 3-[1-[[(13-cyclohexyl-7H-indolo[2,1-a][2]benzazepin-10-yl)carbonyl]amino]cyclopentyl]-1,2,4-oxadiazole-5-butanoic acid]: above 1000 nM and 100 to 1000 nM.
Take `O=C(O)c1ccc(-c2nc(C3(NC(=O)c4ccc5c(C6CCCCC6)c6n(c5c4)CC=Cc4ccccc4-6)CCCC3)no2)cc1` [Example 24]: the IC50 in experiment [1] is above 1000 nM. In the experiment with HCV replicon (Hepatitis C virus), the EC50 fell in the range of 100 to 1000 nM.
The matching figures for `O=C(O)/C=C/c1ccc(-c2nc(C3(NC(=O)c4ccc5c(C6CCCCC6)c6n(c5c4)CC=Cc4ccccc4-6)CCCC3)no2)cc1` [Example 25]: above 1000 nM and 100 to 1000 nM.
The matching figures for `O=C(O)/C=C/c1cccc(-c2nc(C3(NC(=O)c4ccc5c(C6CCCCC6)c6n(c5c4)CC=Cc4ccccc4-6)CCCC3)no2)c1` [Example 26]: above 1000 nM and 100 to 1000 nM.
The matching figures for `O=C(O)/C=C/c1ccc(NC(=O)C2(NC(=O)c3ccc4c(C5CCCCC5)c5n(c4c3)CCCc3ccccc3-5)CCNCC2)cc1` [Example 29, 2-propenoic acid, 3-[4-[[[4-[[(13-cyclohexyl-6,7-dihydro-5H-indolo[2,1-a][2]benzazepin-10-yl)carbonyl]amino]-4-piperidinyl]carbonyl]amino]phenyl]-, (2E)-]: 100 to 1000 nM and below 100 nM.
Take `COC(=O)/C=C/c1ccc(NC(=O)C2(NC(=O)c3ccc4c(C5CCCCC5)c5n(c4c3)CC(=O)Nc3cccnc3-5)CCCC2)cc1` [drawing 98]: the IC50 in experiment [1] was above 1000 nM. Moreover, the EC50 in the experiment on HCV replicon (Hepatitis C virus) was below 100 nM.
Turning to `O=C(O)c1ccc2c(C3CCCCC3)c3n(c2c1)CC(C(=O)N1CCOCC1)Cc1ccccc1-3` (centres unmarked) [drawing 113], the IC50 in experiment [1] was 100 to 1000 nM. In addition, the EC50 with HCV replicon was 100 to 1000 nM.
With `O=C(O)c1ccc2c(C3CCCCC3)c3n(c2c1)CC(C(=O)N1CCOCC1)Cc1ccccc1-3` (centres unmarked) [drawing 114], the IC50 in experiment [1] is above 1000 nM. In the experiment on HCV replicon, the half-maximal effective concentration (EC50) lay in the range of 1000 to 10000 nM.
The matching figures for `O=C(O)c1ccc2c(C3CCCCC3)c3n(c2c1)CC(C(=O)N1CCOCC1)Cc1ccccc1-3` (centres unmarked) [drawing 115]: 100 to 1000 nM and 100 to 1000 nM.
Molecule `O=C(O)c1ccc2c(C3CCCCC3)c3n(c2c1)CC(C(=O)N1CCCCC1)Cc1ccccc1-3` (centres unmarked) [drawing 116] registered an IC50 in experiment [1] of 100 to 1000 nM. Besides, in the experiment on HCV replicon, the concentration giving a half-maximal response (EC50) lay within 100 to 1000 nM.
`O=C(O)c1ccc2c(C3CCCCC3)c3n(c2c1)CC(C(=O)N1CCCCC1)Cc1ccccc1-3` (centres unmarked) [drawing 117] registered an IC50 in experiment [1] above 1000 nM. In the experiment with HCV replicon, the EC50 is 1000 to 10000 nM.
The matching figures for `O=C(O)c1ccc2c(C3CCCCC3)c3n(c2c1)CC(C(=O)N1CCCCC1)Cc1ccccc1-3` (centres unmarked) [drawing 118]: 100 to 1000 nM and 100 to 1000 nM.
The matching figures for `O=C(O)c1ccc2c(C3CCCCC3)c3n(c2c1)CC(C(=O)N1CCCC(O)C1)Cc1ccccc1-3` (centres unmarked) [drawing 119]: 100 to 1000 nM and 100 to 1000 nM.
The matching figures for `O=C(O)c1ccc2c(C3CCCCC3)c3n(c2c1)CC(C(=O)N1CCCC(O)C1)Cc1ccccc1-3` (centres unmarked) [drawing 120]: above 1000 nM and 1000 to 10000 nM.
Turning to `O=C(O)c1ccc2c(C3CCCCC3)c3n(c2c1)CC(C(=O)N1CCCC(O)C1)Cc1ccccc1-3` (centres unmarked) [drawing 121], in experiment [1], the 50% inhibitory concentration (IC50) was in the range of 100 to 1000 nM. For the same molecule, the EC50 with HCV replicon is 100 to 1000 nM.
In the case of “alpha-interferon and ribavirin [reference compound]”, the “sustained efficacy, share of patients” value in the experiment on HCV (HCV patients, combination therapy) was 40%.
As for pegylated alpha-interferon, in the experiment with HCV (compared with unmodified alpha-interferon), the “clinical results as monotherapy” value was “superior to unmodified alpha-interferon”.
